Measurements as given in PubChem BioAssay AID1963965 (Molecular Pharmacology Branch, DTP, NCI, 2024).

Tested on: 996289-038-R-J1-PDC spheroid viability
Experiment: Anticancer human tumor 996289-038-R-J1-PDC patient-derived colon adenocarcinoma cell line growth inhibition [PI3K]
Details: spheroids with HUVEC and MSC; for IC50: curve of first compound; for viability, T/C: stronger effect = lower value
Outline: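 Targeted small molecules plus PI3K inhibitors, half-log dose series from Cmax (default top 10 microM), were applied to heterotypic spheroids of cancer cells with HUVEC and MSCs. Viability indicated growth inhibition.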
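Also: spheroids exposed to compounds for seven days before viability read.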
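For viability, T/C in this document: luminescence used as a proxy for viable cell amount; percent viability relative to DMSO vehicle control as 100%.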

Structure (SMILES): CC1(C)CCC(Nc2ncc(C(F)(F)F)c(-c3c[nH]c4c(P(C)(C)=O)c(C#N)ccc34)n2)CN1 (centres undefined) + CC(Nc1ncnc2nc[nH]c12)c1cc2cccc(Cl)c2c(=O)n1-c1ccccc1
- IC50 (second compound 0.0316 µM): 6.14 µM
- IC50 (second compound 0.1 µM): 5.51 µM
- IC50 (second compound 0.316 µM): 5.94 µM
- IC50 (second compound 1 µM): 5.43 µM
- IC50 (second compound 3.16 µM): 5.26 µM
- IC50 (second compound 10 µM): 4.66 µM
- viability, T/C (second compound 0.0316 µM, first compound 0.0316 µM): 95.8%
- viability, T/C (second compound 0.0316 µM, first compound 0.1 µM): 84.5%
- viability, T/C (second compound 0.0316 µM, first compound 0.316 µM): 85.2%
- viability, T/C (second compound 0.0316 µM, first compound 1 µM): 77.9%
- viability, T/C (second compound 0.0316 µM, first compound 3.16 µM): 84%
- viability, T/C (second compound 0.0316 µM, first compound 10 µM): 25%
- viability, T/C (second compound 0.1 µM, first compound 0.0316 µM): 88.9%
- viability, T/C (second compound 0.1 µM, first compound 0.1 µM): 87.3%
- viability, T/C (second compound 0.1 µM, first compound 0.316 µM): 77.9%
- viability, T/C (second compound 0.1 µM, first compound 1 µM): 75.4%
- viability, T/C (second compound 0.1 µM, first compound 3.16 µM): 78.1%
- viability, T/C (second compound 0.1 µM, first compound 10 µM): 20.1%
- viability, T/C (second compound 0.316 µM, first compound 0.0316 µM): 95.7%
- viability, T/C (second compound 0.316 µM, first compound 0.1 µM): 83.8%
- viability, T/C (second compound 0.316 µM, first compound 0.316 µM): 85.8%
- viability, T/C (second compound 0.316 µM, first compound 1 µM): 77.9%
- viability, T/C (second compound 0.316 µM, first compound 3.16 µM): 87.8%
- viability, T/C (second compound 0.316 µM, first compound 10 µM): 19.9%
- viability, T/C (second compound 1 µM, first compound 0.0316 µM): 88.6%
- viability, T/C (second compound 1 µM, first compound 0.1 µM): 86.1%
- viability, T/C (second compound 1 µM, first compound 0.316 µM): 72.8%
- viability, T/C (second compound 1 µM, first compound 1 µM): 72.3%
- viability, T/C (second compound 1 µM, first compound 3.16 µM): 80.3%
- viability, T/C (second compound 1 µM, first compound 10 µM): 16%
- viability, T/C (second compound 3.16 µM, first compound 0.0316 µM): 82.6%
- viability, T/C (second compound 3.16 µM, first compound 0.1 µM): 81.3%
- viability, T/C (second compound 3.16 µM, first compound 0.316 µM): 74.2%
- viability, T/C (second compound 3.16 µM, first compound 1 µM): 74.4%
- viability, T/C (second compound 3.16 µM, first compound 3.16 µM): 79.2%
- viability, T/C (second compound 3.16 µM, first compound 10 µM): 14.2%
- viability, T/C (second compound 10 µM, first compound 0.0316 µM): 90.9%
- viability, T/C (second compound 10 µM, first compound 0.1 µM): 74.5%
- viability, T/C (second compound 10 µM, first compound 0.316 µM): 58.3%
- viability, T/C (second compound 10 µM, first compound 1 µM): 70.3%
- viability, T/C (second compound 10 µM, first compound 3.16 µM): 69.8%
- viability, T/C (second compound 10 µM, first compound 10 µM): 10.9%

Structure (SMILES): Cn1cnc2c(F)c(Nc3ccc(Br)cc3Cl)c(C(=O)NOCCO)cc21 + COc1c(OCCCN2CCOCC2)ccc2c3n(c(=NC(=O)c4cnc(N)nc4)nc12)CCN3
- IC50 (second compound 0.00316 µM): 0.147 µM
- IC50 (second compound 0.01 µM): 0.074 µM
- IC50 (second compound 0.0316 µM): 0.0496 µM
- IC50 (second compound 0.1 µM): 0.0127 µM
- IC50 (second compound 0.316 µM): < 0.00949 µM
- IC50 (second compound 1 µM): < 0.00949 µM
- viability, T/C (second compound 0.00316 µM, first compound 0.00949 µM): 85.8%
- viability, T/C (second compound 0.00316 µM, first compound 0.03 µM): 64.4%
- viability, T/C (second compound 0.00316 µM, first compound 0.0949 µM): 62.2%
- viability, T/C (second compound 0.00316 µM, first compound 0.3 µM): 38.7%
- viability, T/C (second compound 0.00316 µM, first compound 0.949 µM): 28.2%
- viability, T/C (second compound 0.00316 µM, first compound 3 µM): 20.1%
- viability, T/C (second compound 0.01 µM, first compound 0.00949 µM): 79.3%
- viability, T/C (second compound 0.01 µM, first compound 0.03 µM): 65.1%
- viability, T/C (second compound 0.01 µM, first compound 0.0949 µM): 45.5%
- viability, T/C (second compound 0.01 µM, first compound 0.3 µM): 29.7%
- viability, T/C (second compound 0.01 µM, first compound 0.949 µM): 28.5%
- viability, T/C (second compound 0.01 µM, first compound 3 µM): 16.8%
- viability, T/C (second compound 0.0316 µM, first compound 0.00949 µM): 71.3%
- viability, T/C (second compound 0.0316 µM, first compound 0.03 µM): 59.1%
- viability, T/C (second compound 0.0316 µM, first compound 0.0949 µM): 38.2%
- viability, T/C (second compound 0.0316 µM, first compound 0.3 µM): 28.8%
- viability, T/C (second compound 0.0316 µM, first compound 0.949 µM): 19.2%
- viability, T/C (second compound 0.0316 µM, first compound 3 µM): 12.5%
- viability, T/C (second compound 0.1 µM, first compound 0.00949 µM): 54.1%
- viability, T/C (second compound 0.1 µM, first compound 0.03 µM): 39.2%
- viability, T/C (second compound 0.1 µM, first compound 0.0949 µM): 27.6%
- viability, T/C (second compound 0.1 µM, first compound 0.3 µM): 18.6%
- viability, T/C (second compound 0.1 µM, first compound 0.949 µM): 12.5%
- viability, T/C (second compound 0.1 µM, first compound 3 µM): 5.57%
- viability, T/C (second compound 0.316 µM, first compound 0.00949 µM): 34.1%
- viability, T/C (second compound 0.316 µM, first compound 0.03 µM): 24.5%
- viability, T/C (second compound 0.316 µM, first compound 0.0949 µM): 15.1%
- viability, T/C (second compound 0.316 µM, first compound 0.3 µM): 10.6%
- viability, T/C (second compound 0.316 µM, first compound 0.949 µM): 6.3%
- viability, T/C (second compound 0.316 µM, first compound 3 µM): 4.03%
- viability, T/C (second compound 1 µM, first compound 0.00949 µM): 15.6%
- viability, T/C (second compound 1 µM, first compound 0.03 µM): 14.3%
- viability, T/C (second compound 1 µM, first compound 0.0949 µM): 9.32%
- viability, T/C (second compound 1 µM, first compound 0.3 µM): 5.03%
- viability, T/C (second compound 1 µM, first compound 0.949 µM): 4.84%
- viability, T/C (second compound 1 µM, first compound 3 µM): 2.93%
